Experimental data taken from patent US12559506B2, “Indazole based compounds and associated methods of use” (Arvinas Operations, Inc., priority 2021, dated 2026).
Where two headings read alike, the source gives them in different places.

Molecular target: T1, LRRK2 (endogenous, HiBit tagged) (Homo sapiens, UniProt Q5S007)
T1 construct: endogenous in cells; host or cells: HEK293 cells with HiBit knock-in at the endogenous LRRK2 locus, stably expressing firefly luciferase
Assay: Endogenous LRRK2 degradation assay, endogenous gene C-terminally HiBit-tagged in HEK293 cells (Nano-Glo Dual Luciferase)
Assay type: cell-based
Outline: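 LRRK2-HiBit quantified via Nano-Glo Dual Luciferase in HEK293 knock-in cells co-expressing firefly luciferase, after 24 h exposure to compound (1 μM final top, 1:3, 11 points). Values normalised to DMSO median per plate and curve-fitted; Alamar Blue viability run alongside.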

[1] = endogenous HiBit-tagged LRRK2 in HEK293 cells, 24 hours treatment, read-out: **Endogenous WT Dmax (%)
[2] = endogenous HiBit-tagged LRRK2 in HEK293 cells, 24 hours treatment, read-out: *Endogenous WT DC50
[3] = endogenous HiBit-tagged LRRK2 in HEK293 cells, 24 hours treatment, read-out: Endogenous WT DC50
[4] = endogenous HiBit-tagged LRRK2 in HEK293 cells, 24 hours treatment, read-out: Endogenous WT Dmax
[5] = endogenous HiBit-tagged LRRK2, HEK293 cells, 24 hours, read-out: **Endogenous WT Dmax (%)
[6] = endogenous HiBit-tagged LRRK2, HEK293 cells, 24 hours, read-out: *Endogenous WT DC50

T1 sequence (Q5S007 whole entry): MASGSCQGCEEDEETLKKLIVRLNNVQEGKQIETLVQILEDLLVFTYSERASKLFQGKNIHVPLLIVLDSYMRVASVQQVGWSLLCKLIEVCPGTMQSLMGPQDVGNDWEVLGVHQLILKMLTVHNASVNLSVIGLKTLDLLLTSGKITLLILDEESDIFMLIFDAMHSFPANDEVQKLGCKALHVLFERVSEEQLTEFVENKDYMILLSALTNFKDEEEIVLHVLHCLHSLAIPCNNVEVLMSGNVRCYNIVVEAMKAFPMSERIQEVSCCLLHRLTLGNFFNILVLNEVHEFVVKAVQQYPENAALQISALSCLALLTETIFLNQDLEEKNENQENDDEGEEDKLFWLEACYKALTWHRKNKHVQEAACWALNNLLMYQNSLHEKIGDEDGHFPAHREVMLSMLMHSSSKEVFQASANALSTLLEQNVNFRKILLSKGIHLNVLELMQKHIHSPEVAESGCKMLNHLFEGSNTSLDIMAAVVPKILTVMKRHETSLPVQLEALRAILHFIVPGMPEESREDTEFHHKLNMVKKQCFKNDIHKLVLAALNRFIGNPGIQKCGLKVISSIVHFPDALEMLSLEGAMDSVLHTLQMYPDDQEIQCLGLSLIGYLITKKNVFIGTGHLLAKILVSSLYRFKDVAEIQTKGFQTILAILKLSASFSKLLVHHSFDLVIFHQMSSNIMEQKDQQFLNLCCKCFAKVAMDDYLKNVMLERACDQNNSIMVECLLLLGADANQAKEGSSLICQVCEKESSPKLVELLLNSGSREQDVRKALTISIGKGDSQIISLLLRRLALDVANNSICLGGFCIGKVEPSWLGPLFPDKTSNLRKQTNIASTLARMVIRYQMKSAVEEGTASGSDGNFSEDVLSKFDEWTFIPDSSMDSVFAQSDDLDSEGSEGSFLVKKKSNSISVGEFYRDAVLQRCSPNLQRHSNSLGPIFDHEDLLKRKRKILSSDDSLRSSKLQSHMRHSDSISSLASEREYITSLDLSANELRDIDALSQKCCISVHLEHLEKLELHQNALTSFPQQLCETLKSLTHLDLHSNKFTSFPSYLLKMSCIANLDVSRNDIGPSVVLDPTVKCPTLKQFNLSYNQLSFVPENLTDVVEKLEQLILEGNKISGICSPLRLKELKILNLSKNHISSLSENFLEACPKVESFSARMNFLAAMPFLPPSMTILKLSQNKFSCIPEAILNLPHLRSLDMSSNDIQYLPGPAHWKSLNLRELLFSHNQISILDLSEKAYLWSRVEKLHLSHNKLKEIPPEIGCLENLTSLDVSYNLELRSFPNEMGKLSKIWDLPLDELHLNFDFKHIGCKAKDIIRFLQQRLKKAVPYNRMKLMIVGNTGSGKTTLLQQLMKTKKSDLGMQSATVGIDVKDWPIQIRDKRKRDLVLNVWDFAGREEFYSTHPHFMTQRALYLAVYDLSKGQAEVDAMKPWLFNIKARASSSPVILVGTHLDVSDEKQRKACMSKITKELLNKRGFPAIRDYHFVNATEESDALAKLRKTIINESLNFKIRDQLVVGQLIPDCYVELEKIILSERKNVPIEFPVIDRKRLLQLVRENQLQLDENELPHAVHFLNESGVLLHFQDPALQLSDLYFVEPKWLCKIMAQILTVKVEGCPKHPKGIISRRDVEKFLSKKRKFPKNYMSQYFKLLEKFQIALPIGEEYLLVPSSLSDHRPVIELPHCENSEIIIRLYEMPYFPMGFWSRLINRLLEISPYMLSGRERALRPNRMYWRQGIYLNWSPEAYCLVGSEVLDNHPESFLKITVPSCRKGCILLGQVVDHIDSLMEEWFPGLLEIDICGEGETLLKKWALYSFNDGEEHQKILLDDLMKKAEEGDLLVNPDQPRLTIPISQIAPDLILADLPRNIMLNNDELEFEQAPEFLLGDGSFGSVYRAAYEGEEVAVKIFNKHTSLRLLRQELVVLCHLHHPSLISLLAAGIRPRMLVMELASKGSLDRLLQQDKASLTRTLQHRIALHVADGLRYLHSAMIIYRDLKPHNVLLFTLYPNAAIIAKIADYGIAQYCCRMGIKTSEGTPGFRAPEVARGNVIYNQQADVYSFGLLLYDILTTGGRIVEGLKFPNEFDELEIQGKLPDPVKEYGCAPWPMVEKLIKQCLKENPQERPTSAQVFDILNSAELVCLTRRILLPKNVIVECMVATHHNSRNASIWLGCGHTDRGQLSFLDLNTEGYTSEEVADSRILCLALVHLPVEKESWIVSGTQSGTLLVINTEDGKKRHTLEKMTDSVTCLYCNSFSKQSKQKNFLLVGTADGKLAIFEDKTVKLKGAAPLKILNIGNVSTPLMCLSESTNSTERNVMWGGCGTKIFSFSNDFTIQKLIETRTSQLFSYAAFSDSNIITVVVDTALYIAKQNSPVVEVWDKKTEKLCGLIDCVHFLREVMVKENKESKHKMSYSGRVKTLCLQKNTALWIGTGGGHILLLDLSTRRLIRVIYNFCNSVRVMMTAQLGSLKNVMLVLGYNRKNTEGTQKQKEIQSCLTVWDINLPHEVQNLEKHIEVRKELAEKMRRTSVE

Row | Compound | Dmax [1] | DC50 [2] | DC50 [3] | Dmax [4] | also measured
1 | CC1(Oc2ccc3[nH]nc(-c4ccnc(N5CCC(O[C@H]6CC[C@H](CN7CCN(c8ccc9c(c8F)CN(C8CCC(=O)NC8=O)C9=O)CC7)CC6)CC5)c4)c3c2)CC1 (some centres unmarked) [Compound 354, 3-(4-fluoro-5-(4-(((1r,4r)-4-((1-(4-(5-(1-methylcyclopropoxy)-1H-indazol-3-yl)pyridin-2-yl)piperidin-4-yl)oxy)cyclohexyl)methyl)piperazin-1-yl)-1-oxoisoindolin-2-yl)piperidine-2,6-dione] | 50 to 70% | < 10 nM | – | – | –
2 | COc1c(N2CCC(O[C@H]3CC[C@H](OC4CCN(c5cc(-c6n[nH]c7cnc(OC8(C)CC8)cc67)ncn5)CC4)CC3)CC2)ccc2c1CN(C1CCC(=O)NC1=O)C2=O (some centres unmarked) [Compound 380, 3-[4-methoxy-1-oxo-5-(4-{[(1r,4r)-4-[(1-{6-[5-(1-methylcyclopropoxy)-1H-pyrazolo[3,4-c]pyridin-3-yl]pyrimidin-4-yl}piperidin-4-yl)oxy]cyclohexyl]oxy}piperidin-1-yl)-2,3-dihydro-1H-isoindol-2-yl]piperidine-2,6-dione] | – | – | < 10 nM | 50 to 70% | –
3 | CC1(Oc2ccc3[nH]nc(-c4cc(N5CCC(CCN6CCC7(CN(c8ccc9c(c8F)CN(C8CCC(=O)NC8=O)C9=O)C7)C(F)(F)C6)CC5)ncn4)c3c2)CC1 (centres unmarked) [Compound 376, 3-(5-{5,5-difluoro-7-[2-(1-{6-[5-(1-methylcyclopropoxy)-1H-indazol-3-yl]pyrimidin-4-yl}piperidin-4-yl)ethyl]-2,7-diazaspiro[3.5]nonan-2-yl}-4-fluoro-1-oxo-2,3-dihydro-1H-isoindol-2-yl)piperidine-2,6-dione] | – | – | < 10 nM | 50 to 70% | –
4 | CC1(Oc2ccc3[nH]nc(-c4cc(N5CCC(O[C@H]6CC[C@H](CN7CCN(c8ccc9c(c8F)CN(C8CCC(=O)NC8=O)C9=O)CC7(C)C)CC6)CC5)ncn4)c3c2)CC1 (some centres unmarked) [Compound 361, 3-[5-(3,3-dimethyl-4-{[(1r,4r)-4-[(1-{6-[5-(1-methylcyclopropoxy)-1H-indazol-3-yl]pyrimidin-4-yl}piperidin-4-yl)oxy]cyclohexyl]methyl}piperazin-1-yl)-4-fluoro-1-oxo-2,3-dihydro-1H-isoindol-2-yl]piperidine-2,6-dione] | – | – | < 10 nM | 50 to 70% | –
5 | COc1c(N2CCN(C[C@H]3CC[C@H](OC4CCN(c5cc(-c6n[nH]c7cnc(OC8(C)CC8)cc67)ncn5)CC4)CC3)CC2)ccc2c1CN(C1CCC(=O)NC1=O)C2=O (some centres unmarked) [Compound 268, 3-[4-methoxy-1-oxo-5-(4-{[(1r,4r)-4-[(1-{6-[5-(1-methylcyclopropoxy)-1H-pyrazolo[3,4-c]pyridin-3-yl]pyrimidin-4-yl}piperidin-4-yl)oxy]cyclohexyl]methyl}piperazin-1-yl)-2,3-dihydro-1H-isoindol-2-yl]piperidine-2,6-dione] | 50 to 70% | < 10 nM | – | – | –
6 | CC1(Oc2cc3c(-c4cc(N5CCC(CN6CCN(CC7CCN(c8ccc9c(c8F)CN(C8CCC(=O)NC8=O)C9=O)CC7)CC6)CC5)ncn4)n[nH]c3cc2F)CC1 (centres unmarked) [Compound 186, 3-[4-fluoro-5-[4-[[4-[[1-[6-[6-fluoro-5-(1-methylcyclopropoxy)-1H-indazol-3-yl]pyrimidin-4-yl]-4-piperidyl]methyl]piperazin-1-yl]methyl]-1-piperidyl]-1-oxo-isoindolin-2-yl]piperidine-2,6-dione] | – | – | – | – | Dmax [5]: ≥ 70%; DC50 [6]: < 10 nM
7 | C[C@H]1CN(c2cc(-c3n[nH]c4ccc(OC5(C)CC5)cc34)ncn2)CCN1CC1(F)CN(CC2CCN(c3ccc4c(c3)C(=O)N(C3CCC(=O)NC3=O)C4=O)CC2)C1 (stereo partly drawn) [Compound 123, 2-(2,6-dioxopiperidin-3-yl)-5-{4-[(3-fluoro-3-{[(2S)-2-methyl-4-{6-[5-(1-methylcyclopropoxy)-1H-indazol-3-yl]pyrimidin-4-yl}piperazin-1-yl]methyl}azetidin-1-yl)methyl]piperidin-1-yl}-2,3-dihydro-1H-isoindole-1,3-dione] | – | – | – | – | Dmax (endogenous HiBit-tagged LRRK2 in HEK293 cells, 24 hours, read-out: **Endogenous WT Dmax (%)): < 50%; DC50 (endogenous HiBit-tagged LRRK2 in HEK293 cells, 24 hours, read-out: *Endogenous WT DC50): < 10 nM
8 | CC1(Oc2ccc3n[nH]c(-c4cc(N5CCC(CN6CC(F)(CC7CCN(c8ccc9c(c8F)CN(C8CCC(=O)NC8=O)C9=O)CC7)C6)CC5)ncn4)c3c2)CC1 (centres unmarked) [Compound 337, 3-{4-fluoro-5-[4-({3-fluoro-1-[(1-{6-[5-(1-methylcyclopropoxy)-2H-indazol-3-yl]pyrimidin-4-yl}piperidin-4-yl)methyl]azetidin-3-yl}methyl)piperidin-1-yl]-1-oxo-2,3-dihydro-1H-isoindol-2-yl}piperidine-2,6-dione] | ≥ 70% | < 10 nM | – | – | –
9 | C[C@H]1CN(c2cc(-c3n[nH]c4ccc(OC5(C)CC5)cc34)ncn2)CCN1CC1(F)CCN(CC2CCN(c3ccc4c(c3F)CN(C3CCC(=O)NC3=O)C4=O)CC2)CC1 (stereo partly drawn) [Compound 187, 3-[4-fluoro-5-[4-[[4-fluoro-4-[[(2S)-2-methyl-4-[6-[5-(1-methylcyclopropoxy)-1H-indazol-3-yl]pyrimidin-4-yl]piperazin-1-yl]methyl]-1-piperidyl]methyl]-1-piperidyl]-1-oxo-isoindolin-2-yl]piperidine-2,6-dione] | – | – | – | – | Dmax [5]: ≥ 70%; DC50 [6]: < 10 nM
10 | C[C@H]1CN(CC2CCN(c3ccc4c(c3F)CN(C3CCC(=O)NC3=O)C4=O)CC2)CCN1CC1CCN(c2cc(-c3n[nH]c4ccc(OC5(C)CC5)cc34)ncn2)CC1 (stereo partly drawn) [Compound 221, 3-[4-fluoro-5-(4-{[(3S)-3-methyl-4-[(1-{6-[5-(1-methylcyclopropoxy)-1H-indazol-3-yl]pyrimidin-4-yl}piperidin-4-yl)methyl]piperazin-1-yl]methyl}piperidin-1-yl)-1-oxo-2,3-dihydro-1H-isoindol-2-yl]piperidine-2,6-dione] | – | – | < 10 nM | 50 to 70% | –
11 | CC1(Oc2ccc3n[nH]c(-c4cc(N5CC(OCC6(F)CCN(CC7CCN(c8ccc9c(c8F)CN(C8CCC(=O)NC8=O)C9=O)CC7)CC6)C5)ncn4)c3c2)CC1 (centres unmarked) [Compound 200, 3-[4-fluoro-5-[4-[[4-fluoro-4-[[1-[6-[5-(1-methylcyclopropoxy)-2H-indazol-3-yl]pyrimidin-4-yl]azetidin-3-yl]oxymethyl]-1-piperidyl]methyl]-1-piperidyl]-1-oxo-isoindolin-2-yl]piperidine-2,6-dione] | – | – | – | – | Dmax [5]: ≥ 70%; DC50 [6]: < 10 nM
12 | C[C@@H]1CN(CC2CCN(c3ccc4c(c3F)CN(C3CCC(=O)NC3=O)C4=O)CC2)C[C@H](C)N1CC1CCN(c2cc(-c3n[nH]c4ccc(OC5(C)CC5)cc34)ncn2)CC1 (stereo partly drawn) [Compound 284, 3-[5-(4-{[(3R,5S)-3,5-dimethyl-4-[(1-{6-[5-(1-methylcyclopropoxy)-1H-indazol-3-yl]pyrimidin-4-yl}piperidin-4-yl)methyl]piperazin-1-yl]methyl}piperidin-1-yl)-4-fluoro-1-oxo-2,3-dihydro-1H-isoindol-2-yl]piperidine-2,6-dione] | 50 to 70% | < 10 nM | – | – | –
13 | C[C@@H]1CN(CC2CCN(c3cc(-c4n[nH]c5cnc(OC6(C)CC6)cc45)ncn3)CC2)CCN1CC1CCN(c2ccc3c(c2F)CN(C2CCC(=O)NC2=O)C3=O)CC1 (stereo partly drawn) [Compound 272, 3-[4-fluoro-5-(4-{[(2R)-2-methyl-4-[(1-{6-[5-(1-methylcyclopropoxy)-1H-pyrazolo[3,4-c]pyridin-3-yl]pyrimidin-4-yl}piperidin-4-yl)methyl]piperazin-1-yl]methyl}piperidin-1-yl)-1-oxo-2,3-dihydro-1H-isoindol-2-yl]piperidine-2,6-dione] | 50 to 70% | < 10 nM | – | – | –
14 | CC1(Oc2ccc3[nH]nc(-c4cc(N5CCC(CN6CC7CC(C6)N7CC6CCN(c7ccc8c(c7F)CN(C7CCC(=O)NC7=O)C8=O)CC6)CC5)ncn4)c3c2)CC1 (centres unmarked) [Compound 225, 3-{4-fluoro-5-[4-({3-[(1-{6-[5-(1-methylcyclopropoxy)-1H-indazol-3-yl]pyrimidin-4-yl}piperidin-4-yl)methyl]-3,6-diazabicyclo[3.1.1]heptan-6-yl}methyl)piperidin-1-yl]-1-oxo-2,3-dihydro-1H-isoindol-2-yl}piperidine-2,6-dione] | – | – | < 10 nM | 50 to 70% | –
15 | CC1(Oc2ccc3[nH]nc(-c4cc(N5CCN(CC6(F)CCN(CC7CCN(c8c(F)cc9c(c8F)CN(C8CCC(=O)NC8=O)C9=O)CC7)CC6)CC5)ncn4)c3c2)CC1 (centres unmarked) [Compound 220, 3-{4,6-difluoro-5-[4-({4-fluoro-4-[(4-{6-[5-(1-methylcyclopropoxy)-1H-indazol-3-yl]pyrimidin-4-yl}piperazin-1-yl)methyl]piperidin-1-yl}methyl)piperidin-1-yl]-1-oxo-2,3-dihydro-1H-isoindol-2-yl}piperidine-2,6-dione] | – | – | < 10 nM | 50 to 70% | –
16 | CC1(Oc2ccc3[nH]nc(-c4cc(N5CCN(C[C@H]6CC[C@H](CN7CCN(c8ccc9c(c8Cl)CN(C8CCC(=O)NC8=O)C9=O)CC7)CC6)CC5)ncn4)c3c2)CC1 (some centres unmarked) [Compound 370, 3-[4-chloro-1-oxo-5-(4-{[(1r,4r)-4-[(4-{6-[5-(1-methylcyclopropoxy)-1H-indazol-3-yl]pyrimidin-4-yl}piperazin-1-yl)methyl]cyclohexyl]methyl}piperazin-1-yl)-2,3-dihydro-1H-isoindol-2-yl]piperidine-2,6-dione] | – | – | < 10 nM | 50 to 70% | –
